Source: patent US7132279B2, “Epidermal melanocyte culture formulations” (New York Eye & Ear Infirmary, priority 2003, dated 2006)
Where no end group is shown, it is not given here.

Tests used:
epidermal melanocytes [1] = assay: Migration of cultured epidermal melanocytes in Boyden chambers; assay type: cell-based, human; conditions: for Migration of epidermal melanocytes: cAMP deleted medium
Method: Cell migration experiments were performed on early passages of cells in 48-well Boyden chambers (Neuroprobe, Bethesda, Md.). Cultured epidermal melanocytes were dissociated with 0.05% trypsin-EDTA (Sigma, St. Louis, Mo.) at 37° C. for 2–3 minutes, neutralized by culture medium with 10% FBS. The cells were centrifuged and resuspended in culture medium. The lower half of the Boyden chambers contained culture medium with or without tested substances. An 8 μm pore cellulose nitrate filter separated the upper and lower wells. Epidermal melanocytes (3×10^4) suspended in 50 μl culture medium (with or without tested substances) were added to the upper wells. The chamber was incubated at 37° C. in a humidified atmosphere at 95% air and 5% CO2. After 6 hours, the filter was removed from the chamber, fixed in 95% ethanol for 5 minutes, and stained with hematoxylin for 1 minute. The number of cells migrating through the filter and attached to the lower surface of the filter was counted (Doerr et al., 1996, J Biol Chem 271:2443; Verdoorn et al., 1986, Arch Ophtalmol 104:1216). Triplicate samples were assayed in all experiments.

epidermal melanocytes [2] = assay: Melanin production of cultured epidermal melanocytes (optical density at 475 nm); assay type: cell-based, human; conditions: 6 days
Method: (§1) Three deleted media were used for the study, (i) growth factor-deleted medium, (ii) cAMP-elevating agent deleted medium and (iii) serum-depleted medium. Various testing substances were added to the three deleted media above. These substances include bFGF, HGF, epinephrine and α-MSH. The deleted medium without the test substance was the negative control and the complete medium is the positive control.
Melanocytes cultured as described above were detached by trypsin-EDTA solution and counted in a hemocytometer. The cell suspensions were centrifuged and the pellet was resuspended in 1N NaOH. Melanin concentration was determined by measurement of optical density at 475 nm by a spectrophotometer and compared with a standard curve obtained using synthetic melanin (Sigma, St. Louis, Mo.). Melanin content is expressed as μg/culture or ng/cell (Hu et al., 1995, Invest. Ophthalmol Vis Sci 36:931).

epidermal melanocytes [3] = conditions: Halaban et al., 1988; cholera toxin in the media; cited from earlier work
epidermal melanocytes [4] = assay: Cell growth of cultured epidermal melanocytes by cell counting (6 days); assay type: cell-based, human
Method: as §1
Human skin specimens containing epidermis were obtained from a donor. The specimens were incubated in 0.25% trypsin solution (GIBCO, Carlsbad, Calif.) for 15 minutes at 37° C., followed by a 10 minute incubation with 0.2% EDTA (Sigma, St. Louis, Mo.) solution. The epidermal sheets were gently treated with forceps to dissociate the epidermal cells and to yield an epidermal cell suspension. The epidermal cells were centrifuged and seeded into a 25 cm^2 flask with the culture medium. The flask was incubated at 37° C. in an atmosphere of 95% humidified air and 5% CO2. Geneticin (Sigma, St. Louis, Mo.) was added (100 μg/ml) for three days to eliminate keratinocytes and fibroblasts. The medium was changed every three days. The melanocytes typically reached confluence in two weeks. After reaching confluence, the melanocytes were detached using trypsin-EDTA solution, centrifuged, diluted and seeded for subculture. At the time of transplantation, the melanocytes were detached using trypsin-EDTA solution, centrifuged and resuspended with F12 medium.
Cell counting was used to evaluate the effect of the test substance on growth of epidermal melanocytes. Epidermal melanocytes were plated in 6-well plates at a density of 1×10^5 cells per well with medium. After 24 hours, medium was replaced by the testing media. The media was changed every three days. After six days, the cells were detached with trypsin-EDTA solution and neutralized with culture medium with 10% serum. The cell suspension was centrifuged and the pellet was resuspended in 1 ml F12 medium, 20 μl of the cell suspension was collected into the tip of a Pasteur pipette and transferred to a hemocytometer. The hemocytometer was observed under an optical microscope. Cells falling in four […] areas bounded by three parallel lines were counted. The cell number was obtained using Formula I shown below (Freshney, 1987, Culture of Animal Cells. Wiley-Liss, Inc., New York, 2nd edition). The average of four counts was calculated. Triplicate samples were assayed in all experiments. c=n×10^4 FORMULA I • where c=concentration (cells/ml), n=number of cells counted.

ocular melanocytes = conditions: Hu, 2000; cited from earlier work
[5] = cAMP-elevating agents-deleted medium, epinephrine 1-3,000 ng/ml, α-MSH 1-1,000 ng/ml
[6] = growth factor-deleted medium, 1-1,000 ng/ml

| Compound | Migration of epidermal melanocytes (epidermal melanocytes [1]) | Melanin content/well versus control (epidermal melanocytes [2]; [5]) | Growth of cultured epidermal melanocytes (epidermal melanocytes [3]) | Cell growth (cell number) versus control (epidermal melanocytes [4]; [5]) | Melanin content/well versus control (epidermal melanocytes [2]; [6]) | Cell growth (cell number) versus control (epidermal melanocytes [4]; [6]) | Migration cell number versus control (epidermal melanocytes [1]; 1-1,000 ng/ml, 6 hours) | Growth of cultured ocular melanocytes (ocular melanocytes) |
| --- | --- | --- | --- | --- | --- | --- | --- | --- |
| α-MSH: tridecapeptide with a sequence identical to the first 13 amino acids of adrenocorticotropin (ACTH) (SYSMEHFRWGKPV; ends and bridges not checked; UniProt P01189 138-150, looked up) | stimulated the growth, melanogenesis and migration | significantly greater than that of the controls | failed to stimulate growth | dose dependent stimulation of cell growth | – | – | – | – |
| bFGF: basic fibroblast growth factor (PeproTech) | – | – | – | – | did not show any significant influence on melanin content | dose dependent stimulation of cell growth | – | – |
| CNC[C@H](O)c1ccc(O)c(O)c1 [epinephrine, (L)-Epinephrine bitartrate] | stimulated the growth, melanogenesis and migration | significantly greater than that of the controls | – | dose dependent stimulation of cell growth | – | – | – | – |
| HGF: hepatocyte growth factor, pleiotrophic growth factor (PeproTech) | – | – | – | – | significantly greater than that of the controls | dose dependent stimulation of cell growth | dose dependent stimulation of migration | stimulates growth of cultured ocular melanocytes |
